Measurements reported in publication PMC12583774 (Nature Communications, 2025).

Molecular target: SARS-CoV-2 NSP14 (Severe acute respiratory syndrome coronavirus 2, UniProt P0DTD1)
Assay type: binding

Row | Compound | Tm changes | Tm shift, maximum reached [°C]
1 | Nc1nc2c(ncn2[C@@H]2O[C@H](COP(=O)(O)OP(=O)(O)OP(=O)(O)OC[C@H]3O[C@@H](n4cnc5c(=O)[nH]c(N)nc54)[C@H](O)[C@@H]3O)[C@@H](O)[C@H]2O)c(=O)[nH]1 [GpppG, G(5′)ppp(5′)G RNA Cap Structure Analog] | negligible Tm changes | 
2 | Nc1ncnc2c1ncn2[C@@H]1O[C@H](CSCC[C@H](N)C(=O)O)[C@@H](O)[C@H]1O [SAH] |  | ≤ 10.0
3 | C[S+](CC[C@H](N)C(=O)[O-])C[C@H]1O[C@@H](n2cnc3c(N)ncnc32)[C@H](O)[C@@H]1O (stereo partly shown) [SAM, S-adenosylmethionine] | negligible Tm changes | 
4 | Cn1c[n+]([C@@H]2O[C@H](COP(=O)(O)OP(=O)([O-])OP(=O)(O)OC[C@H]3O[C@@H](n4cnc5c(=O)[nH]c(N)nc54)[C@H](O)[C@@H]3O)[C@@H](O)[C@H]2O)c2nc(N)[nH]c(=O)c21 [m7GpppG] | negligible Tm changes | 
